Laboratory results: patent publication US11459337B2, “Isothiazolo[5,4-D]pyrimidine compound as IRAK4 inhibitor” (priority 2018, dated 2022)
Like-named read-outs stand apart in the source and are kept apart here.

Legend:
[1] = test system: THP-1 cells; test: TNF-α ELISA assay in LPS-stimulated THP-1 cells; assay type: cell-based, human; settings: Homo sapiens, THP-1, 18 h, TNF-α in supernatant, 150 ng/mL LPS
Description: TNF-α ELISA Assay in THP-1 Cells THP-1 human acute unicellular leukemia cells were purchased from ATCC (Cat #TIB-202) and incubated in a 37° C., 5% CO2 incubator. The medium was RPMI1640 (Gibco, Cat #22400-105), the supplementary was 10% FBS (Gibco, Cat #10091148); 1% PenStrep (Gibco, Cat #15140); 0.05 mM 2-mercaptoethanol (Sigma, Cat #M6250). TNF-α content in the culture supernatant was measured by a TNF-α Elisa kit. TNF-α was produced by stimulation of THP-1 cells with 150 ng/mL LPS (Sigma, Cat #L6529). Normal THP-1 cells in logarithmic phase were inoculated in 96-well plates (Corning #3599) at a certain concentration (1×10^5/100 μL) and then incubated in an incubator. After two hours, 16.7 μL of test compound of different concentrations (8×final concentration) was added and the mixture was incubated. After one hour, 16.7 μL of 1200 ng/mL LPS was added and the mixture was incubated. After 18 hours, the culture was centrifuged and the supernatant was collected. The TNF-α content was measured by a TNF-α Elisa kit. Finally, the OD signals (OD450-OD570) were read on an envision plate reader. The OD450-OD570 signals were converted to percent inhibition. Inhibition %=(ZPE−sample)/(ZPE−HPE)×100. “HPE” represents the OD450-OD570 signal value of the control without LPS-stimulated cells, and “ZPE” represents the OD450-OD570 signal value of the control with LPS-stimulated cells. IC50 values for compounds were calculated by XLFit in the Excel. Y=Bottom+(Top−Bottom)/(1+(IC50/X)^HillSlope). Equation: […]

[2] = target: human IRAK4 (Homo sapiens (Human), UniProt Q9NWZ3); test: 33P-labeled kinase activity assay (Reaction Biology Corp), in vitro enzymatic activity; assay type: biochemical; settings: 20 μM ATP, 3 nM kinase, MBP substrate
Description: The inhibitory activity of the test compounds against human IRAK4 was evaluated by measuring IC50 values in a ^33P-labeled kinase activity assay (Reaction Biology Corp). Buffer conditions: 20 mM Hepes (pH 7.5), 10 mM MgCl2, 1 mM EGTA, 0.02% Brij35, 0.02 mg/mL BSA, 0.1 mM Na3VO4, 2 mM DTT, 1% DMSO. Procedures: The test compound was dissolved in DMSO at room temperature to prepare a 10 mM solution for later use. The substrate was dissolved in fresh buffer, to which the kinase was added and mixed well. The DMSO solution containing the test compound was added to the above mixed reaction system by an acoustic technique (Echo 550). The concentrations of the compounds in reaction system were 10 μM, 3.33 μM, 1.11 μM, 0.370 μM, 0.123 μM, 41.2 nM, 13.7 nM, 4.57 nM, 1.52 nM, and 0.508 nM. After 15 minutes of incubation, the reaction was started by adding ^33P-ATP (activity: 0.01 μCi/μL; the corresponding concentration is listed in Table 1). Supplier's catalog number, lot number and concentration information in the reaction system for IRAK4 and its substrate are listed in Table 1. After 120 minutes of reaction at room temperature, the resulting solution was loaded on P81 ion exchange chromatography paper sheet (Whatman #3698-915). After repeated washing with 0.75% phosphoric acid solution, the radioactivity of the phosphorylated substrate residue on the paper sheet was measured. The kinase activity data are shown as a comparison of the kinase activity of the test compound and the kinase activity of the blank (DMSO only) and a curve was fitted using Prism4 software (GraphPad) to give IC50 values, with the experimental results shown in Table 2. [table]

[3] = Pharmacokinetic study of oral and intravenous test compounds in SD rats; assay type: in vivo; settings: rat, plasma, SD male rats; for Vd: read-out: Apparent volume of distribution Vdss; for AUC(0-t): read-out: Area under plasma concentration-time curve AUC0-last; for clearance: read-out: Clearance CL; for half-life: read-out: Half life T1/2 (converted); for bioavailability: read-out: Bioavailability F; for Cmax: read-out: Peak concentration Cmax; for Tmax: read-out: Time to peak Tmax
Description: Pharmacokinetic Study of Oral and Intravenous Test Compounds in SD Rats The test compound was mixed with a solution containing 10% of methyl pyrrolidone, 10% of polyethylene glycol stearate and 80% of water. The mixture was vortexed and sonicated to prepare a 1.5 mg/mL clarified solution, which was then filtered through a microporous membrane for later use. SD male rats aged 7 to 10 weeks were selected and administered intravenously with a dose of the candidate compound at 3 mg/kg. The test compound was mixed with 0.5% aqueous methylcellulose solution. The mixture was vortexed and sonicated to prepare a 2 mg/mL suspension for later use. SD male rats aged 7 to 10 weeks were selected and orally administered with a dose of the candidate compound at 10 mg/kg. Whole blood was collected at certain time points, and plasma was separated. The drug concentration was measured by LC-MS/MS, and pharmacokinetic parameters were calculated using Phoenix WinNonlin software (Pharsight, USA).

[4] = In vitro metabolic stability in liver microsome, monkey; assay type: in vitro ADME; settings: Monkey liver microsomes, 1 μM compound, 0.5 mg/mL protein
Description: (§1) Metabolic Stability in Liver Microsome The test compounds at 1 μM were co-incubated with liver microsomes having a protein concentration of 0.5 mg/mL under the action of a reductive coenzyme II regeneration system in a 37° C. water bath. • 1) Positive controls included: testosterone (3A4 substrate), propylamine propiophenone (2D6 substrate), and diclofenac (2C9 substrate). The positive controls were incubated in the same condition as the test compounds. • 2) The reaction was stopped using a stop reagent containing the internal standard at time points of 0, 5, 10, 20, 30 and 60 minutes. […] CLint^mic: intrinsic microsomal clearance;

[5] = In vitro metabolic stability in liver microsome, human; assay type: in vitro ADME; settings: Human liver microsomes, 1 μM compound, 0.5 mg/mL protein
Description: as §1

[6] = test system: LPS-induced TNF-α secretion; test: Pharmacodynamic study evaluating LPS-induced TNF-α secretion in SD rats; assay type: in vivo; settings: for efficacy compared with dexamethasone DEX: DEX 0.5 mg/kg; for inhibitory effect on LPS-induced TNF-α secretion: LPS 1 mg/kg i.p.
Description: Pharmacodynamic Study Evaluating […] (LPS)-Induced TNF-α Secretion in SD Rats SD rats were orally administered with a solvent, dexamethasone (DEX, 0.5 mg/kg) as positive control, and the test compound, and were intraperitoneally injected with LPS (1 mg/kg) 0.5 hours after the administration Animals were euthanized with CO2 2 hours after LPS injection. Cardiac blood was collected into EDTA-K2 vacutainers, and a part of the anticoagulated blood was centrifuged and the plasma was frozen at −80° C. Frozen plasma was thawed at room temperature and the concentration of TNF-α in the plasma was measured using ELISA kit. The experimental data were expressed using mean±SEM, and TNF-α levels were analyzed by One-way ANOVA. Significant differences were considered for p<0.05.

[7] = In vitro metabolic stability in liver microsome, mouse; assay type: in vitro ADME; settings: Mouse liver microsomes, 1 μM compound, 0.5 mg/mL protein
Description: as §1

[8] = In vitro metabolic stability in liver microsome, dog; assay type: in vitro ADME; settings: Dog liver microsomes, 1 μM compound, 0.5 mg/mL protein
Description: as §1

[9] = In vitro metabolic stability in liver microsome, rat; assay type: in vitro ADME; settings: Rat liver microsomes, 1 μM compound, 0.5 mg/mL protein
Description: as §1

Sequence of human IRAK4 (Q9NWZ3 whole entry): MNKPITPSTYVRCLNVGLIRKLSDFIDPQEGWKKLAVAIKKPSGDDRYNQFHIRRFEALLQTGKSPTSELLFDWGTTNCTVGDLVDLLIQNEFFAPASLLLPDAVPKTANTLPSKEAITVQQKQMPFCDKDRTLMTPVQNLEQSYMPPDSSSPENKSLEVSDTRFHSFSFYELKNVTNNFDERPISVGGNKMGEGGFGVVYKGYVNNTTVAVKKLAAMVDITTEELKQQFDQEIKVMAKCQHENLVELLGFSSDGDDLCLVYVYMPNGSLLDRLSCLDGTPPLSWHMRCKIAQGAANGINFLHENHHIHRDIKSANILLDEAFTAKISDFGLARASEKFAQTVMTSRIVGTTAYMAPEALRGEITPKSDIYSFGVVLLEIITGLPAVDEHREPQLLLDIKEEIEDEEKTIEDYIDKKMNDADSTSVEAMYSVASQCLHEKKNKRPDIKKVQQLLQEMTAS

| SMILES | IC50 [1] [nM] | IC50 [2] [nM] | Vd ([3]; Intravenous, 3 mg/kg) [L/kg] | AUC(0-t) ([3]; Intravenous, 3 mg/kg) [µM·h] | clearance ([3]; Intravenous, 3 mg/kg) [mL/min/kg] | half-life ([3]; Intravenous, 3 mg/kg) [h] | AUC(0-t) ([3]; Oral, 10 mg/kg) [µM·h] | bioavailability ([3]; Oral, 10 mg/kg) [%] | Cmax ([3]; Oral, 10 mg/kg) [nM] | Tmax ([3]; Oral, 10 mg/kg) [h] | Re1 h % (residue of test compound at 1 hour) [4] [%] | Re1 h % (residue of test compound at 1 hour) [5] [%] | efficacy compared with dexamethasone DEX ([6]; FIG. 1, oral, 30 mpk) | inhibitory effect on LPS-induced TNF-α secretion ([6]; FIG. 1, oral, 30 mpk) | inhibitory effect compared with reference compounds WXR2, WXR3 and WXR4 ([6]; FIG. 1, oral, same doses (30 mpk)) | inhibitory effect on LPS-induced TNF-α secretion ([6]; FIG. 2, oral, 20 mpk) | Re1 h % (residue of test compound at 1 hour) [7] [%] | Re1 h % (residue of test compound at 1 hour) [8] [%] | Re1 h % (residue of test compound at 1 hour) [9] [%] | efficacy compared with dexamethasone DEX ([6]; FIG. 2, oral, 20 mpk) |
| --- | --- | --- | --- | --- | --- | --- | --- | --- | --- | --- | --- | --- | --- | --- | --- | --- | --- | --- | --- | --- |
| Cc1nsc2nc(Nc3cnn(C4CCOCC4)c3)nc(N[C@H]3CC[C@H](N4CCOCC4)CC3)c12 [WX001] | 177 | 6.8 | 4.6 | 1.75 | 57 | 1.4 | 2.05 | 35 | 397 | 2.3 | 3.2 | 50.0 | equivalent | significant inhibitory effect | significantly superior | significant inhibitory effect | 39.1 | 60.5 | 76.6 |  |
| CC(C)c1nsc2nc(Nc3cnn(C4CCOCC4)c3)nc(N[C@H]3CC[C@H](N4CCOCC4)CC3)c12 [WX003] | 329 | 2.9 | 4.8 | 1.33 | 71.4 | 1 | 2.01 | 48 | 523 | 0.8 |  |  |  |  |  |  |  |  |  |  |
| Cc1nsc2nc(Nc3cnn(C4CCOC4)c3)nc(N[C@H]3CC[C@H](N4CCOCC4)CC3)c12 (some centres unmarked) [WX007] | 417 | 5.7 | 3.3 | 1.33 | 79 | 0.9 | 1.64 | 38 | 389 | 2 |  |  |  |  |  |  |  |  |  |  |
| Cc1nsc2nc(Nc3cnn(C4COC4)c3)nc(N[C@H]3CC[C@H](N4CCOCC4)CC3)c12 [WX009] | 649 | 21.3 | 5.7 | 1.46 | 73.3 | 1.8 | 2.69 | 58 | 540 | 2.5 |  |  |  |  |  |  |  |  |  |  |
| COC(=O)N1CCN([C@H]2CC[C@H](Nc3nc(Nc4cnn(C5CCOCC5)c4)nc4snc(C)c34)CC2)CC1 [WX026] | 156 | 2 | 4.5 | 1.77 | 50.6 | 2.2 | 1.36 | 23 | 308 | 1.5 |  |  |  |  |  | significant inhibitory effect |  |  |  | equivalent |
| COC(=O)N1C2CC1CN([C@H]1CC[C@H](Nc3nc(Nc4cnn(C5CCOCC5)c4)nc4snc(C)c34)CC1)C2 [WX044] |  | 40.7 |  |  |  |  |  |  |  |  |  |  |  |  |  | significant inhibitory effect |  |  |  |  |
| c1cc2c(N[C@H]3CC[C@H](N4CCOCC4)CC3)nc(Nc3cnn(C4CCOCC4)c3)nc2s1 [WXR1, reference compound] |  |  |  |  |  |  |  |  |  |  | 0.6 | 23.7 |  |  |  |  | 0.0 | 5.5 | 32.3 |  |
